Reference: patent US9409905B2, “Antibacterial compounds and methods for use” (PTC THERAPEUTICS, INC., priority 2011, dated 2016)
≈ marks a conversion by molar mass, not a printed value.

Key:
[1] = tested on: Klebsiella pneumoniae (K. pneumoniae) 35657; experiment: Antibacterial activity, MIC (Table 4); type: cell-based; conditions: K. pneumoniae 35657, read-out: MIC, 35657
Summary of the method: (§1)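 Values are minimum inhibitory concentrations in μg/mL from broth microdilution, meaning no macroscopically visible growth at that concentration. Resistant MXX isolates are multi-drug resistant clinical strains.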

[2] = tested on: Acinetobacter baumannii (A. baumannii) BAA747; experiment: Antibacterial activity, MIC (Table 4); type: cell-based; conditions: A. baumannii BAA747, read-out: MIC, BAA747
Summary of the method: as §1

[3] = tested on: E. coli 25922; experiment: Antibacterial activity, microbroth dilution MIC (Table 1); type: cell-based, Escherichia coli; conditions: Escherichia coli; microbroth dilution; control Gram-negative E. coli 25922 strain; read-out: MIC, 25922
Summary of the method: (§2)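 In a microbroth dilution test, the minimum inhibitory concentration was defined as the lowest compound level preventing growth seen by eye, and was given in μg/mL.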

[4] = tested on: K. pneumoniae MXX1232; experiment: Antibacterial activity, MIC, resistant strain (Table 4); type: cell-based; conditions: Klebsiella pneumoniae, MXX1232; resistant K. pneumoniae MMX1232, multi-drug resistant clinical isolate; read-out: MIC, MMX1232
Summary of the method: as §1

[5] = tested on: A. baumannii MXX2240; experiment: as above; type: cell-based; conditions: Acinetobacter baumannii, MXX2240; resistant A. baumannii MMX2240, multi-drug resistant clinical isolate; read-out: MIC, MMX2240
Summary of the method: as §1

[6] = tested on: E. coli LZ3111; experiment: Antibacterial activity, MIC, quinolone resistant strain (Table 2); type: cell-based; conditions: Escherichia coli, LZ3111, read-out: MIC LZ3111
Summary of the method: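 Strain carries mutations conferring high-level quinolone resistance; tested by microbroth dilution, MIC recorded in μg/mL as lowest concentration preventing visible growth.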

[7] = tested on: Staphylococcus aureus (S. aureus) 29213; experiment: Antibacterial activity, microbroth dilution MIC (Table 1); type: cell-based; conditions: microbroth dilution, Gram-positive S. aureus 29213, read-out: MIC, 29213
Summary of the method: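 Microbroth dilution was used. MIC, in μg/mL, is the lowest drug concentration preventing macroscopically visible growth under the test conditions.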

[8] = tested on: Escherichia coli (E. coli) BAS849; experiment: as above; type: cell-based; conditions: microbroth dilution, super sensitive Gram-negative E. coli BAS849, read-out: MIC, BAS849
Summary of the method: as §2

[9] = tested on: E. coli ELZ4251; experiment: Antibacterial activity, MIC, multi-drug resistant clinical isolate (Table 3); type: cell-based; conditions: Escherichia coli
Summary of the method: (§3)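 Microbroth dilution. Endpoint: absence of macroscopically visible growth. Value = MIC, μg/mL.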

[10] = tested on: E. coli ELZ4000; experiment: as above; type: cell-based; conditions: Escherichia coli, ELZ4000, read-out: MIC ELZ4000
Summary of the method: as §3

[11] = tested on: Pseudomonas aeruginosa (P. aeruginosa) 27853; experiment: Antibacterial activity, MIC (Table 5); type: cell-based; conditions: P. aeruginosa 27853, read-out: MIC, 27853
Summary of the method: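 Compounds are serially diluted in broth and inoculated with the organism. Growth is then inspected macroscopically, and the lowest concentration showing none is taken as the MIC (μg/mL).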

Row | SMILES | MIC [1] | MIC [2] | MIC [3] | MIC [4] | MIC [5] | MIC [6] | MIC [7] | MIC [8] | MIC [9] | MIC [10] | MIC [11]
1 | CCc1c(-c2ccc3ccn(C)c3c2)[nH]c(=O)c(C(=O)O)c1O [Cpd 8, 5-ethyl-4-hydroxy-6-(1-methyl-1H-indol-6-yl)-2-oxo-1,2-dihydropyridine-3-carboxylic acid] | 12.5 to 150 µg/mL (≈ 40 to 480 µM) | 12.5 to 150 µg/mL (≈ 40 to 480 µM) | 12.5 to 150 µg/mL (≈ 40 to 480 µM) | 12.5 to 150 µg/mL (≈ 40 to 480 µM) | 12.5 to 150 µg/mL (≈ 40 to 480 µM) | 3.5 to 12.5 µg/mL (≈ 11.2 to 40 µM) | 3.5 to 12.5 µg/mL (≈ 11.2 to 40 µM) | 1 to 3.5 µg/mL (≈ 3.2 to 11.2 µM) | 12.5 to 150 µg/mL (≈ 40 to 480 µM) | 12.5 to 150 µg/mL (≈ 40 to 480 µM) | 12.5 to 150 µg/mL (≈ 40 to 480 µM)
2 | CCc1cc(C(=O)O)c(=O)[nH]c1-c1ccc2c(c1)cc(CN1CC[C@@H](F)C1)n2C [Cpd 129, (R)-5-ethyl-6-(2-((3-fluoropyrrolidin-1-yl)methyl)-1-methyl-1H-indol-5-yl)-2-oxo-1,2-dihydropyridine-3-carboxylic acid] | 1 to 3.5 µg/mL (≈ 2.52 to 8.81 µM) | 3.5 to 12.5 µg/mL (≈ 8.81 to 31.5 µM) | < 1 µg/mL | 12.5 to 150 µg/mL (≈ 31.5 to 377 µM) | 12.5 to 150 µg/mL (≈ 31.5 to 377 µM) | 12.5 to 150 µg/mL (≈ 31.5 to 377 µM) | 3.5 to 12.5 µg/mL (≈ 8.81 to 31.5 µM) | < 1 µg/mL | 12.5 to 150 µg/mL (≈ 31.5 to 377 µM) | 12.5 to 150 µg/mL (≈ 31.5 to 377 µM) | 12.5 to 150 µg/mL (≈ 31.5 to 377 µM)
3 | CCc1cc(C(=O)O)c(=O)[nH]c1-c1ccc2c(c1)cc(CN1CCCC1C)n2C (centres unmarked) [Cpd 130, 5-ethyl-6-(1-methyl-2-((2-methylpyrrolidin-1-yl)methyl)-1H-indol-5-yl)-2-oxo-1,2-dihydropyridine-3-carboxylic acid] | < 1 µg/mL | 1 to 3.5 µg/mL (≈ 2.54 to 8.89 µM) | < 1 µg/mL | 12.5 to 150 µg/mL (≈ 31.8 to 381 µM) | 12.5 to 150 µg/mL (≈ 31.8 to 381 µM) | 12.5 to 150 µg/mL (≈ 31.8 to 381 µM) | 12.5 to 150 µg/mL (≈ 31.8 to 381 µM) | < 1 µg/mL | 12.5 to 150 µg/mL (≈ 31.8 to 381 µM) | 12.5 to 150 µg/mL (≈ 31.8 to 381 µM) | 12.5 to 150 µg/mL (≈ 31.8 to 381 µM)
4 | CCc1cc(C(=O)O)c(=O)[nH]c1-c1ccc2c(c1)cc(CN1CCC[C@@H]1CO)n2C [Cpd 132, (R)-5-ethyl-6-(2-((2-(hydroxymethyl)pyrrolidin-1-yl)methyl)-1-methyl-1H-indol-5-yl)-2-oxo-1,2-dihydropyridine-3-carboxylic acid] | < 1 µg/mL | 3.5 to 12.5 µg/mL (≈ 8.55 to 30.5 µM) | < 1 µg/mL | 12.5 to 150 µg/mL (≈ 30.5 to 366 µM) | 12.5 to 150 µg/mL (≈ 30.5 to 366 µM) | 12.5 to 150 µg/mL (≈ 30.5 to 366 µM) | 12.5 to 150 µg/mL (≈ 30.5 to 366 µM) | < 1 µg/mL | 12.5 to 150 µg/mL (≈ 30.5 to 366 µM) | 12.5 to 150 µg/mL (≈ 30.5 to 366 µM) | 12.5 to 150 µg/mL (≈ 30.5 to 366 µM)
5 | CCc1cc(C(=O)O)c(=O)[nH]c1-c1ccc2c(c1)cc(CN1CCCCC1)n2C [Cpd 133, 5-ethyl-6-(1-methyl-2-(piperidin-1-ylmethyl)-1H-indol-5-yl)-2-oxo-1,2-dihydropyridine-3-carboxylic acid] | < 1 µg/mL | 1 to 3.5 µg/mL (≈ 2.54 to 8.89 µM) | < 1 µg/mL | 12.5 to 150 µg/mL (≈ 31.8 to 381 µM) | 12.5 to 150 µg/mL (≈ 31.8 to 381 µM) | 12.5 to 150 µg/mL (≈ 31.8 to 381 µM) | 12.5 to 150 µg/mL (≈ 31.8 to 381 µM) | < 1 µg/mL | 12.5 to 150 µg/mL (≈ 31.8 to 381 µM) | 12.5 to 150 µg/mL (≈ 31.8 to 381 µM) | 12.5 to 150 µg/mL (≈ 31.8 to 381 µM)
6 | CCc1cc(C(=O)O)c(=O)[nH]c1-c1ccc2c(c1)cc1n2CCC1N(C)C (centres unmarked) [Cpd 152, 6-(1-(dimethylamino)-2,3-dihydro-1H-pyrrolo[1,2-a]indol-7-yl)-5-ethyl-2-oxo-1,2-dihydropyridine-3-carboxylic acid] | < 1 µg/mL | 3.5 to 12.5 µg/mL (≈ 9.58 to 34.2 µM) | < 1 µg/mL | 12.5 to 150 µg/mL (≈ 34.2 to 410 µM) | 12.5 to 150 µg/mL (≈ 34.2 to 410 µM) | 12.5 to 150 µg/mL (≈ 34.2 to 410 µM) | 12.5 to 150 µg/mL (≈ 34.2 to 410 µM) | < 1 µg/mL | 12.5 to 150 µg/mL (≈ 34.2 to 410 µM) | 12.5 to 150 µg/mL (≈ 34.2 to 410 µM) | 12.5 to 150 µg/mL (≈ 34.2 to 410 µM)
7 | CCc1cc(C(=O)O)c(=O)[nH]c1-c1ccc2c(c1)cc(CCN1CCCC1)n2C [Cpd 159, 5-ethyl-6-(1-methyl-2-(2-(pyrrolidin-1-yl)ethyl)-1H-indol-5-yl)-2-oxo-1,2-dihydropyridine-3-carboxylic acid] | < 1 µg/mL | 3.5 to 12.5 µg/mL (≈ 8.89 to 31.8 µM) | < 1 µg/mL | 12.5 to 150 µg/mL (≈ 31.8 to 381 µM) | 12.5 to 150 µg/mL (≈ 31.8 to 381 µM) | 12.5 to 150 µg/mL (≈ 31.8 to 381 µM) | 12.5 to 150 µg/mL (≈ 31.8 to 381 µM) | < 1 µg/mL | 12.5 to 150 µg/mL (≈ 31.8 to 381 µM) | 12.5 to 150 µg/mL (≈ 31.8 to 381 µM) | 3.5 to 12.5 µg/mL (≈ 8.89 to 31.8 µM)
